Reference: patent US20260265216A1, “NOVEL THIOREDOXIN REDUCTASE INHIBITORS” (GENEXPLAIN GMBH, priority 2021, published 2026)

Key:
[1] = test system: cancer cells; assay: Oxidative stress measurement (DCFH-DA, ROS); type: cell-based
Protocol: Cells were treated with compounds and incubated 30 min with 10 μM DCF-DA in serum free medium. Afterward, cells were trypsinized, washed with PBS and fluorescence was analyzed by a FACSCalibur flow cytometer (BD Biosciences) using FL1-H channel.
To get insight into the mechanism of the anti-tumor activity of 1d*HCl, we tested the level of oxidative stress upon treatment. We measured the induction of reactive oxygen species (ROS), using 2′-7′-Dichlorodihydrofluorescein diacetate (DCFH-DA)-based assay. […] After 8 h of treatment, the induction of reactive oxygen species (ROS) was much higher.

[2] = test system: HCT116 cells; assay: Growth suppression in the presence of antioxidant NAC; type: cell-based; conditions: HCT116, 5 mM NAC 16 h pre-treatment; 2.5, 5, 10 μM; 24 h
Protocol: To find out whether oxidative stress plays a role in cancer cell death induced by 1d*HCl, we tested the extent of growth suppression by the treatment in the presence of antioxidant N-acetyl cysteine (NAC), which neutralize ROS. We pre-treated HCT116 cells with 5 mM NAC. After 16 h of incubation with NAC, we treated HCT116 cells with 2.5, 5, and 10 μM of 1d*HCl. We measured the growth suppression 24 h after treatment. […] Thus, we conclude that the mechanism of cancer cell growth suppression is dependent on the induction of oxidative stress by the compounds of the present invention.

[3] = test system: cancer cells; assay: Cell growth assay, combination with BSO; type: cell-based; conditions: 5 μM 1d*HCl and 50 μM BSO
Protocol: Further, we tested whether the inhibition of GR by BSO will have additive effect with 1d*HCl. If 1d*HCl mechanism of action includes inhibition of GR, BSO will not have an additive effect. We used a range of concentrations of 1d*HCl and BSO in cell growth assays. […] Next, we tested whether the prevention of oxidative stress by NAC will affect the growth suppression by the combination of 1d*HCl and BSO. In the presence of NAC we observed the additive effect of 1d*HCl with 50 μM BSO only at twice higher dose of 1d*HCl-10 μM.

[4] = test system: cancer cells grown in hypoxia; assay: Growth suppression under hypoxia versus normoxia; type: cell-based; conditions: hypoxia vs normoxia
Protocol: Breast, colon, ovarian, cervical, liver and lung carcinoma cell lines were grown in DMEM supplemented with 10% FBS, and antibiotics were cultured at 37° C. and 5% CO2. Osteosarcoma, melanoma, lymphoma, neuroblastoma and leukemia cell lines were cultured in RPMI 1640 with 10% FBS and antibiotics. An oxygen concentration of 0.3% was obtained by flushing a sealed box containing the cells with premixed gas composed of 95% nitrogen (N2) and 5% CO2 (AGA AB, Sweden). To obtain an oxygen concentration of 0.05%, the cells were flushed with the premixed gas continuously throughout the experiment.
Hypoxic tumors are often the most aggressive and resistant to chemotherapy. Therefore, we tested how cells in hypoxia will respond to the treatment by 1d*HCl. It has been shown that 1d*HCl is even more efficient in hypoxia condition. […] Thus, the compounds of the present invention are of great interest for the treatment of hypoxic solid tumors.

[5] = test system: B16 melanoma; assay: B16 melanoma mouse model; type: in vivo, C57BL/6 mice; conditions: 10 mg/kg i.p. every other day for 9 days, day 8 and day 9
Protocol: For the B16 melanoma mouse model, 6-weeks-old female C57BL/6 mice were injected subcutaneously with 1×10^6 B16 cells. When the tumors reached 80-120 mm^3, 10 mg/kg of 1d*HCl were administered intraperitoneally every other day for 9 days (days 1, 3, 5, 7, 9). Tumor volume was measured by caliper three times per week, and the volume was calculated based on the formula (in ml): L/10*W/10*W/10*0.44 (L-length, W=width of tumor). Mice were sacrificed when tumors reached 2 cm^3 or upon bleeding.
We tested the anti-tumor activity of 1d*HCl using allogenic model of B16 mice. We inoculated mice with B16 melanoma cells. When the tumors reached 100 mm^3, we treated them with i.p. injection of 1d*HCl, 10 mg/kg every other day for 9 days. […] The differences in tumor volume between untreated control mice and animals treated with 1d*HCl are all statistically significant. Thus, 1d*HCl has in vivo anti-tumor activity in this animal tumor model.

In the case of `Cl.N#Cc1c(-c2cccnc2)[n+]([O-])c2cc(F)c(N3CCOCC3)cc2[n+]1[O-]` [Compound 1d*HCl, 6-Fluoro-7-(morpholin-4-yl)-3-(pyridin-3-yl)quinoxaline-2-carbonitrile-1,4-dioxide hydrochloride], the “induction of reactive oxygen species (DCF fluorescence)” value ([1]; 2 h after treatment) is reported as “significant increase in DCF fluorescence”, the “induction of reactive oxygen species (ROS)” value ([1]; after 8 h of treatment) is reported as “much higher” and the “growth suppression after prevention of ROS accumulation by NAC” value [2] is reported as “almost completely abolished the growth suppression”. For the same molecule, the “effect of combination with BSO on cell growth” value [3] was “have an additive effect and completely eradicated cancer cells”, the “IC50 in hypoxia lower than that in normoxia” value [4] was 2.3 fold and the “tumor volume compared to vehicle-treated mice” value [5] was “lower volume of tumors”.
